From PubChem BioAssay (NCI)
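These data come from cells grown in 96-well plates and exposed to compound for 48 hours at five concentrations. TGI marks complete inhibition of growth.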

What was measured:
Assay in all cases: DTP human tumour cell line panel, 48 h
HCC-2998 colon = test system: HCC-2998 colon
SK-OV-3 ovarian = test system: SK-OV-3 ovarian
XF 498 CNS = test system: XF 498 CNS
SK-MEL-5 melanoma = test system: SK-MEL-5 melanoma
HOP-62 NSCLC = test system: HOP-62 NSCLC
LOX IMVI melanoma = test system: LOX IMVI melanoma
HL-60(TB) leukemia = test system: HL-60(TB) leukemia
SW-620 colon = test system: SW-620 colon
DMS 273 small cell lung = test system: DMS 273 small cell lung
786-0 renal = test system: 786-0 renal
CCRF-CEM leukemia = test system: CCRF-CEM leukemia
MOLT-4 leukemia = test system: MOLT-4 leukemia
OVCAR-3 ovarian = test system: OVCAR-3 ovarian
M19-MEL melanoma = test system: M19-MEL melanoma
RXF 393 renal = test system: RXF 393 renal
A549 NSCLC = test system: A549 NSCLC
COLO 205 colon = test system: COLO 205 colon
TK-10 renal = test system: TK-10 renal
M14 melanoma = test system: M14 melanoma
IGROV1 ovarian = test system: IGROV1 ovarian
EKVX NSCLC = test system: EKVX NSCLC
NCI-H460 lung = test system: NCI-H460 lung
NCI-H23 lung = test system: NCI-H23 lung
SK-MEL-2 melanoma = test system: SK-MEL-2 melanoma
OVCAR-8 ovarian = test system: OVCAR-8 ovarian
KM12 colon = test system: KM12 colon
HCT-116 colon = test system: HCT-116 colon
SF-539 CNS = test system: SF-539 CNS
SNB-75 CNS = test system: SNB-75 CNS
ACHN renal = test system: ACHN renal
OVCAR-4 ovarian = test system: OVCAR-4 ovarian
SN12C renal = test system: SN12C renal
RXF-631 renal = test system: RXF-631 renal
SK-MEL-28 melanoma = test system: SK-MEL-28 melanoma
RPMI-8226 leukemia = test system: RPMI-8226 leukemia
SR leukemia = test system: SR leukemia
UACC-257 melanoma = test system: UACC-257 melanoma
SF-268 CNS = test system: SF-268 CNS
UACC-62 melanoma = test system: UACC-62 melanoma
A498 renal = test system: A498 renal
K-562 leukemia = test system: K-562 leukemia
DLD-1 colon = test system: DLD-1 colon
HT29 colon = test system: HT29 colon
MALME-3M melanoma = test system: MALME-3M melanoma
U251 CNS = test system: U251 CNS
SF-295 CNS = test system: SF-295 CNS
HCT-15 colon = test system: HCT-15 colon
SNB-78 CNS = test system: SNB-78 CNS
HOP-92 NSCLC = test system: HOP-92 NSCLC
LXFL 529 NSCLC = test system: LXFL 529 NSCLC
DMS 114 small cell lung = test system: DMS 114 small cell lung
KM20L2 colon = test system: KM20L2 colon
UO-31 renal = test system: UO-31 renal
NCI-H522 lung = test system: NCI-H522 lung
SNB-19 CNS = test system: SNB-19 CNS
OVCAR-5 ovarian = test system: OVCAR-5 ovarian
CAKI-1 renal = test system: CAKI-1 renal
NCI-H226 lung = test system: NCI-H226 lung

Nc1ccc(C(c2ccccc2)(c2ccccc2)c2ccccc2)cc1
TGI (HCC-2998 colon): > 100 µM | TGI (SK-OV-3 ovarian): 35.7 µM | TGI (XF 498 CNS): 41.1 µM | TGI (SK-MEL-5 melanoma): > 100 µM | TGI (HOP-62 NSCLC): 75.8 µM | TGI (LOX IMVI melanoma): > 100 µM | TGI (HL-60(TB) leukemia): 91.6 µM | TGI (SW-620 colon): > 100 µM | TGI (DMS 273 small cell lung): > 100 µM | TGI (786-0 renal): > 100 µM | TGI (CCRF-CEM leukemia): > 100 µM | TGI (MOLT-4 leukemia): > 100 µM | TGI (OVCAR-3 ovarian): > 100 µM | TGI (M19-MEL melanoma): > 100 µM | TGI (RXF 393 renal): 56 µM | TGI (A549 NSCLC): > 100 µM | TGI (COLO 205 colon): > 100 µM | TGI (TK-10 renal): 95.3 µM | TGI (M14 melanoma): 30.1 µM | TGI (IGROV1 ovarian): > 100 µM | TGI (EKVX NSCLC): > 100 µM | TGI (NCI-H460 lung): > 100 µM | TGI (NCI-H23 lung): 88.4 µM | TGI (SK-MEL-2 melanoma): > 100 µM | TGI (OVCAR-8 ovarian): > 100 µM | TGI (KM12 colon): > 100 µM | TGI (HCT-116 colon): > 100 µM | TGI (SF-539 CNS): > 100 µM | TGI (SNB-75 CNS): 53.9 µM | TGI (ACHN renal): > 100 µM | TGI (OVCAR-4 ovarian): > 100 µM | TGI (SN12C renal): > 100 µM | TGI (RXF-631 renal): > 100 µM | TGI (SK-MEL-28 melanoma): 56.1 µM | TGI (RPMI-8226 leukemia): > 100 µM | TGI (SR leukemia): > 100 µM | TGI (UACC-257 melanoma): > 100 µM | TGI (SF-268 CNS): > 100 µM | TGI (UACC-62 melanoma): 41.3 µM | TGI (A498 renal): > 100 µM | TGI (K-562 leukemia): > 100 µM | TGI (DLD-1 colon): > 100 µM | TGI (HT29 colon): > 100 µM | TGI (MALME-3M melanoma): > 100 µM | TGI (U251 CNS): 62.1 µM | TGI (SF-295 CNS): 34.4 µM | TGI (HCT-15 colon): > 100 µM | TGI (SNB-78 CNS): 77 µM | TGI (HOP-92 NSCLC): 31.1 µM | TGI (LXFL 529 NSCLC): > 100 µM | TGI (DMS 114 small cell lung): > 100 µM

CCOC(=O)C(=O)Nc1ccc(C)c(C)c1
TGI (HCC-2998 colon): > 100 µM | TGI (SK-OV-3 ovarian): > 100 µM | TGI (SK-MEL-5 melanoma): > 100 µM | TGI (HOP-62 NSCLC): > 100 µM | TGI (LOX IMVI melanoma): > 100 µM | TGI (HL-60(TB) leukemia): > 100 µM | TGI (SW-620 colon): 20 µM | TGI (DMS 273 small cell lung): > 100 µM | TGI (786-0 renal): > 100 µM | TGI (CCRF-CEM leukemia): > 100 µM | TGI (MOLT-4 leukemia): > 100 µM | TGI (KM20L2 colon): > 100 µM | TGI (UO-31 renal): > 100 µM | TGI (M19-MEL melanoma): > 100 µM | TGI (RXF 393 renal): > 100 µM | TGI (A549 NSCLC): > 100 µM | TGI (COLO 205 colon): 32.2 µM | TGI (TK-10 renal): > 100 µM | TGI (M14 melanoma): > 100 µM | TGI (IGROV1 ovarian): > 100 µM | TGI (EKVX NSCLC): > 100 µM | TGI (NCI-H460 lung): > 100 µM | TGI (NCI-H23 lung): > 100 µM | TGI (SK-MEL-2 melanoma): > 100 µM | TGI (KM12 colon): > 93.8 µM | TGI (NCI-H522 lung): > 100 µM | TGI (HCT-116 colon): > 100 µM | TGI (SF-539 CNS): > 100 µM | TGI (SNB-75 CNS): > 100 µM | TGI (ACHN renal): > 100 µM | TGI (OVCAR-4 ovarian): > 100 µM | TGI (SN12C renal): > 100 µM | TGI (SNB-19 CNS): > 100 µM | TGI (RXF-631 renal): > 100 µM | TGI (SK-MEL-28 melanoma): > 100 µM | TGI (RPMI-8226 leukemia): > 100 µM | TGI (UACC-257 melanoma): > 100 µM | TGI (SF-268 CNS): > 100 µM | TGI (OVCAR-5 ovarian): > 100 µM | TGI (UACC-62 melanoma): > 100 µM | TGI (A498 renal): > 100 µM | TGI (K-562 leukemia): > 100 µM | TGI (DLD-1 colon): > 100 µM | TGI (CAKI-1 renal): > 100 µM | TGI (HT29 colon): > 100 µM | TGI (MALME-3M melanoma): > 100 µM | TGI (U251 CNS): > 100 µM | TGI (SF-295 CNS): > 100 µM | TGI (HCT-15 colon): > 55.4 µM | TGI (SNB-78 CNS): > 100 µM | TGI (NCI-H226 lung): > 100 µM | TGI (LXFL 529 NSCLC): > 100 µM | TGI (DMS 114 small cell lung): > 56.5 µM
